The test system of one data set is μ opiate receptor. Also noted: species or system guinea-pig.
The nature of data set [1]: PQ-induced writhing test (mouse analgesia model). It counts as in vivo, ICR derived male mice. The note with it: for % Reduction in Writhes: given 30 minutes before PQ (2 mg/kg), writhes 5 to 10 minutes after PQ. On the technique in general: Writhing tests count abdominal constrictions after an irritant is injected.
For data set [2] the following is noted: in vivo.
Data set [3] can be described thus: Formalin-induced hind paw licking test (mouse analgesia model). Format: in vivo, ICR derived male mice. To be noted: for % Reduction in Hind Paw Licking time: given one hour before subplantar formalin, licking time recorded during the following 20 to 30 minute period.

“And” between values parts separate entries of the source, which are not always exact repeats. Identical values can stand only once. Like-named read-outs stand apart in the source and are kept apart here.

As to `N=C(N)N1CC[C@]23c4c5ccc(O)c4O[C@H]2[C@@H](O)C=CC3[C@H]1C5` (stereo partly drawn) [KRS-2-19, (5α,6α)-7,8-didehydro-4,5-epoxy-17-N-(2-carboxamidino)-morphinan-3,6, -diol], the “agonist character (full / partial)” value with μ opiate receptor was “only partial morphine agonist activity”.

Consider `COc1ccc2c3c1O[C@H]1[C@@H](O)C=CC4[C@@H](C2)N(CCC(=N)N)CC[C@@]341` (stereo partly drawn) [KRS-2-63, 5α,6α-7,8-didehydro-4,5-epoxy-3-methoxy-17-N-[(2-aminoiminomethyl)ethyl]morphinan], for which, in the data set on μ opiate receptor, the “agonist character (full / partial)” value is recorded as “partial agonist activity”.

On to `N=C(N)CCN1CC[C@]23c4c5ccc(O)c4O[C@H]2[C@@H](O)C=CC3[C@H]1C5` (stereo partly drawn) [KRS-41, (5α,6α)-7,8-didehydro-4,5-epoxy-17-N-[(2-aminoiminomethyl)ethyl]-morphinan-3,6-diol], for which the “% Reduction in Writhes” value in data set [1] (3 mg/kg) was found to be 18%. Moreover, the “% Reduction in Writhes” value in data set [1] (15 mg/kg) is reported as 93%. The “analgesic activity at multiple of the morphine concentration” value in data set [1] (PQ writhing test, relative to morphine) is 5 times the morphine concentration. Besides, in data set [2] (30 mg/kg), the Corneal reflex is 4.9 ± 0.1, the Grip strength worked out at 5.1 ± 0.4, the “Positional Passivity” value was 4.7 ± 0.3 and the Respiratory rate came to 5.1 ± 0.2. Moreover, in data set [2] (30 mg/kg), the Tail elevation came to 2.0 ± 0.4. The “opiate activity in stimulated ileum compared to standard” value with μ opiate receptor is “excellent activity compared to morphine”. Moreover, in data set [3] (10 mg/kg), the “% Reduction in Hind Paw Licking time” value is 12%. Further, the “% Reduction in Hind Paw Licking time” value in data set [3] (30 mg/kg) is 75%. In addition, the “analgesic activity at multiple of the morphine concentration” value in data set [3] (formalin test, relative to morphine) is on record as 3 times the morphine concentration.

For the molecule `CN1CC[C@]23c4c5ccc(O)c4O[C@H]2[C@@H](O)C=C[C@H]3[C@H]1C5.Cl` [Morphine HCl, reference compound], in data set [1] (3 mg/kg, HCl), the “% Reduction in Writhes” value was 87% and 73%. For the same molecule, the “% Reduction in Hind Paw Licking time” value in data set [3] (10 mg/kg) is listed as 100%.

Take `CN1CC[C@]23c4c5ccc(O)c4O[C@H]2[C@@H](O)C=C[C@H]3[C@H]1C5` [Morphine, reference compound]: in data set [2] (10 mg/kg), the Corneal reflex worked out at 2.9 ± 0.2, the Grip strength worked out at 3.7 ± 0.3, the “Positional Passivity” value came to 8.7 ± 0.4 and the Respiratory rate is reported as 4.1 ± 0.3. In data set [2] (10 mg/kg), this molecule returned a Tail elevation of 7.0 ± 0.7.

Values taken from patent publication US6784186B1 (priority 1998, dated 2004).
